Consider nine compounds from publication PMC11052071, “Novel JAK Inhibitors to Reduce Graft-Versus-Host Disease after Allogeneic Hematopoietic Cell Transplantation in a Preclinical Mouse Model” (Molecules, 2024).

Molecules are shown by their SMILES. Read-outs that look alike come from different tables or passages of the source.

One series has as its target TYK2 (Homo sapiens, UniProt P29597). Put plainly: Z'-LYTE enzyme activity assay (SelectScreen Kinase Profiling), TYK2.
The conditions of series [1]: cited from earlier work; for terminal plasma half-life: human.
Another series deals with GvHD. The series can be described thus: Preclinical mouse model of allo-HCT (GvHD). The series is classed as in vivo, Balb/c recipient mice. The text has this: To determine the potential of WU4 and WU8 in preventing GvHD, we performed allo-HCT in which 5 × 10^6 T cell-depleted bone marrow (TCD-BM; CD45.1+) and 5 × 10^5 splenic pan T cells (CD45.2+) obtained from B6 mice were transplanted into lethally irradiated (900 cGy on day −1) Balb/c allogeneic recipient mice on day 0. […]. […] Among monocyte subsets, we only considered classical (LyG6^−CD11b^+Ly6C^high) and intermediate monocytes (LyG6^−CD11b^+Ly6C^middle) as APCs, excluding non-classical monocytes (LyG6^−CD11b^+Ly6C^low) due to their anti-inflammatory function, which downregulates antigen presentation during inflammation. […]
Figure 5 In vivo administration of WU4 and WU8 reduces GvHD by increasing % of Tregs while suppressing % of APCs and costimulatory proteins on APCs after allo-HCT. Allo-HCT was performed as follows: 5 × 10^6 TCD-BM (CD45.1+) and 5 × 10^5 splenic T cells (CD45.2+) obtained from B6 mice were transplanted on day 0 into lethally irradiated (900 cGy on day −1) Balb/c allogeneic recipient mice. TCD-BM-only group served as a no-GvHD control. […] (A,B) The mice were monitored for survival and GvHD signs. (C–F) Whole splenocytes were analyzed for % of Tregs, recipient/BM-derived APCs, and CD80-expressing APCs on day 6 after allo-HCT. LyG6^−CD11b^+Ly6C^high and LyG6^−CD11b^+Ly6C^middle served as classical and intermediate monocyte subsets. NT: neutrophils. * p < 0.05, ** p < 0.01, and *** p < 0.001. All error bars are represented as mean ± standard deviation.
Allo-HCT was performed as previously described. Briefly, BALB/c mice were used as recipients and received 9 Gy total body irradiation on day −1, then were transplanted with 5 × 10^6 T cell-depleted bone marrow (TCD-BM) cells from B6 (CD45.1+) mice along with 0.5 × 10^6 splenic T cells from B6 (CD45.2+) mice on day 0. Mouse TCD-BM and splenic T cells were prepared using an EasySep mouse CD90.2 positive selection kit II and an EasySep mouse T cell isolation kit ([…] Technologies, Cambridge, MA, USA), respectively.
GvHD clinical scores were assessed twice per week by a scoring system incorporating five clinical criteria: weight loss (diarrhea scored 1 regardless of weight change), posture (hunching), mobility, fur texture, and skin integrity, as previously described. Individual mice were scored from 0 to 2 for each criterion and were sacrificed with GvHD scores of 6 or above, following our approved animal protocol.
T cells from in vitro primary murine T cell culture, fresh peripheral blood, or whole splenocytes were analyzed according to cell surface and intracellular markers. Surface markers were directly stained with flow antibodies for 20 min at 4 °C. For intracellular staining (FOXP3 and T-bet), cells were fixed and permeabilized after surface staining using appropriate buffers (One-step intracellular nuclear protein staining protocol, eBioscience, San Diego, CA, USA) and stained with flow antibodies. The antibodies used for flow cytometric analyses for mouse cells were as follows: FOXP3, T-BET, and CD183 (eBioscience, San Diego, CA, USA); CD3, H2-Kb, H2-Kd, CD4, B220, CD11b, CD11c, Ly6C, and DEC205 (BioLegend, San Diego, CA); and CD8, CD45.2, CD80, and Ly6G (BD Pharmingen, San Jose, CA, USA). All cells were run on a ZE5 Cell Analyzer (BD Biosciences, Mountain View, CA, USA) or Attune® NxT (Thermofisher Scientific, Waltham, MA, USA) and analyzed with the FlowJo software, version 10.9.0 (FlowJo LLC., Ashland, OR, USA).

The conditions of series [2]: human; cited from earlier work.
In the next series the test system is PKN1. Conditions: murine and human whole-kinome analyses; cited from earlier work.
A further series concerns the target T1, JAK3 (Homo sapiens, UniProt P52333).
T1 sequence (P52333 1-1124): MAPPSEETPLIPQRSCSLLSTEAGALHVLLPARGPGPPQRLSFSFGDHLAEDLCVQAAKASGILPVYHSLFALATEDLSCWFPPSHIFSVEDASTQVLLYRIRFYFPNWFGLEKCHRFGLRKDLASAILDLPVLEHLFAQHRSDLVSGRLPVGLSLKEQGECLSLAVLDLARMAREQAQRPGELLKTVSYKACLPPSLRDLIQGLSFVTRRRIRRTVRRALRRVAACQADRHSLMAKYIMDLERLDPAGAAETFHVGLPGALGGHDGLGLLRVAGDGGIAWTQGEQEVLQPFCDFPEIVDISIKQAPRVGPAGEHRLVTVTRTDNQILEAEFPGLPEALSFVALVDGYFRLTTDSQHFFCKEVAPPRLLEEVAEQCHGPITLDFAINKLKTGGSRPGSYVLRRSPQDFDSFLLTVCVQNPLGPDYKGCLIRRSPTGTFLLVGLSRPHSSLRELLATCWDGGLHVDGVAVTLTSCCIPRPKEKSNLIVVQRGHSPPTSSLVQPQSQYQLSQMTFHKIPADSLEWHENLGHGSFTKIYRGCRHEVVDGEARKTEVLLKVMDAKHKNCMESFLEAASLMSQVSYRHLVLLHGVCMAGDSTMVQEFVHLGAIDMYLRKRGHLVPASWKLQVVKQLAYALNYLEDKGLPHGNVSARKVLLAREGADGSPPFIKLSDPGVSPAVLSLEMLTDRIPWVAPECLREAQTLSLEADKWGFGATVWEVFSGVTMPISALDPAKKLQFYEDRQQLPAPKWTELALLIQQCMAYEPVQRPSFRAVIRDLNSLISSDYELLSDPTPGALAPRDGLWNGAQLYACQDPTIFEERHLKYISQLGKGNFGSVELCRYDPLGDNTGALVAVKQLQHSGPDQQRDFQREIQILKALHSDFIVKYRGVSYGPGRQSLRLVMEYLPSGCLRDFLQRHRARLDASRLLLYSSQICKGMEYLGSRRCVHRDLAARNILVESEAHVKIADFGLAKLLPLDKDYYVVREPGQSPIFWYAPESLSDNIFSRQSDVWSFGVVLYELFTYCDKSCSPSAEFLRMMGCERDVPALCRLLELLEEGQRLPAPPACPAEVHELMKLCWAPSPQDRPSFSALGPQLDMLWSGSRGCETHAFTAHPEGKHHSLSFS
The series can be described thus: Z'-LYTE enzyme activity assay (SelectScreen Kinase Profiling), JAK3.

The target of the next series is JAK2 (Homo sapiens, UniProt O60674). The series can be described thus: Z'-LYTE enzyme activity assay (SelectScreen Kinase Profiling), JAK2.
The target of a further series is JAK1 (Homo sapiens, UniProt P23458). The series can be described thus: Z'-LYTE enzyme activity assay (SelectScreen Kinase Profiling), JAK1.
Series [3] is described as follows: Mouse PK after subcutaneous injection. Conditions: 2 mg/kg s.c., CD-1 mice, time points up to 6 h; WU derivatives compared to BARI. The series is classed as in vivo.
Series [4] can be described thus: Human liver microsome (HLM) assay. Format: in vitro ADME. Conditions: incubations with human liver microsomes. The procedure: Subsequently, we assessed the in vitro metabolic stability and clearance values of WU derivatives in an HLM assay.
(A,B) Mouse PK following subcutaneous administration of WU derivatives (2 mg/kg) to CD-1 mice. […] All error bars are represented as mean ± standard deviation.
Mouse PK and in vitro human liver microsome (HLM) assay studies were conducted by Charles River Laboratories, Inc. (Wilmington, MA, USA). Briefly, male CD-1 mice were used in mouse PK studies. […] At 24 h, no drug levels were detected in plasma for any of the compounds tested. In addition, WU derivatives were evaluated in an in vitro HLM assay to determine the intrinsic human liver microsomal clearance values of compounds in incubations with human liver microsomes.

Where [5] appears, read: 4 mg/kg s.c. once daily for 3 weeks from day 3, vs vehicle control.
Setting [6] is: 20 mg/kg s.c. once daily for 3 weeks from day 3, vs vehicle control.
Where [7] appears, read: dose not given, vs vehicle control.

The IC50 is the concentration that inhibits the measured activity by half.

Sequence of JAK2 (O60674 whole entry): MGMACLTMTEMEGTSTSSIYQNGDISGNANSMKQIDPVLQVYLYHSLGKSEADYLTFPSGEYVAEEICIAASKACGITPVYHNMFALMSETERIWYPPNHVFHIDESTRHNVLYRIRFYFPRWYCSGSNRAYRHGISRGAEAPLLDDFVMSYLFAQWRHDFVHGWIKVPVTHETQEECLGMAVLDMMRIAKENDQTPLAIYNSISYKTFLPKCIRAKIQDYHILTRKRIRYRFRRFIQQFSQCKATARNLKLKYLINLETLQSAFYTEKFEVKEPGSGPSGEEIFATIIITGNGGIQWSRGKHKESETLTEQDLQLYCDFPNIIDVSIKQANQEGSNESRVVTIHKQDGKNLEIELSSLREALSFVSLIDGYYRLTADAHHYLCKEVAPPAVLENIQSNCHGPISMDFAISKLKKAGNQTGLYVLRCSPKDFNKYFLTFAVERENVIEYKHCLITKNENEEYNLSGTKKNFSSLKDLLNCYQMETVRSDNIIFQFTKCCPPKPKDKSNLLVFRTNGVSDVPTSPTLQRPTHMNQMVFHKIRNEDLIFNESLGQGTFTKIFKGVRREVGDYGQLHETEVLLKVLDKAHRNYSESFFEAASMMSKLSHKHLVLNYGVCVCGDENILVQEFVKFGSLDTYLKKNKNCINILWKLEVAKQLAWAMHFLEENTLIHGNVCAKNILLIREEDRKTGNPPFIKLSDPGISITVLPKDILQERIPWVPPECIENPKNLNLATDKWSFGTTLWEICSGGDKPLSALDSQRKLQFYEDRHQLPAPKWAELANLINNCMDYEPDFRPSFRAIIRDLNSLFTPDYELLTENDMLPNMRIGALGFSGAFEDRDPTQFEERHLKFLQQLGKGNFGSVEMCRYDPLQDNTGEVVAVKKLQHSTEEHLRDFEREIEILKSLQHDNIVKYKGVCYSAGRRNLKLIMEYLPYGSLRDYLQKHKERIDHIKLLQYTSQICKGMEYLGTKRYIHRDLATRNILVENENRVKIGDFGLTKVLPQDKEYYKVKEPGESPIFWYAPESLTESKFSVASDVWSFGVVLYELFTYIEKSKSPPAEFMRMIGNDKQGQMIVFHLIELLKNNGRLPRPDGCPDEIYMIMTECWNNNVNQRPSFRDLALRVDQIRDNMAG
Sequence of TYK2 (P29597 whole entry): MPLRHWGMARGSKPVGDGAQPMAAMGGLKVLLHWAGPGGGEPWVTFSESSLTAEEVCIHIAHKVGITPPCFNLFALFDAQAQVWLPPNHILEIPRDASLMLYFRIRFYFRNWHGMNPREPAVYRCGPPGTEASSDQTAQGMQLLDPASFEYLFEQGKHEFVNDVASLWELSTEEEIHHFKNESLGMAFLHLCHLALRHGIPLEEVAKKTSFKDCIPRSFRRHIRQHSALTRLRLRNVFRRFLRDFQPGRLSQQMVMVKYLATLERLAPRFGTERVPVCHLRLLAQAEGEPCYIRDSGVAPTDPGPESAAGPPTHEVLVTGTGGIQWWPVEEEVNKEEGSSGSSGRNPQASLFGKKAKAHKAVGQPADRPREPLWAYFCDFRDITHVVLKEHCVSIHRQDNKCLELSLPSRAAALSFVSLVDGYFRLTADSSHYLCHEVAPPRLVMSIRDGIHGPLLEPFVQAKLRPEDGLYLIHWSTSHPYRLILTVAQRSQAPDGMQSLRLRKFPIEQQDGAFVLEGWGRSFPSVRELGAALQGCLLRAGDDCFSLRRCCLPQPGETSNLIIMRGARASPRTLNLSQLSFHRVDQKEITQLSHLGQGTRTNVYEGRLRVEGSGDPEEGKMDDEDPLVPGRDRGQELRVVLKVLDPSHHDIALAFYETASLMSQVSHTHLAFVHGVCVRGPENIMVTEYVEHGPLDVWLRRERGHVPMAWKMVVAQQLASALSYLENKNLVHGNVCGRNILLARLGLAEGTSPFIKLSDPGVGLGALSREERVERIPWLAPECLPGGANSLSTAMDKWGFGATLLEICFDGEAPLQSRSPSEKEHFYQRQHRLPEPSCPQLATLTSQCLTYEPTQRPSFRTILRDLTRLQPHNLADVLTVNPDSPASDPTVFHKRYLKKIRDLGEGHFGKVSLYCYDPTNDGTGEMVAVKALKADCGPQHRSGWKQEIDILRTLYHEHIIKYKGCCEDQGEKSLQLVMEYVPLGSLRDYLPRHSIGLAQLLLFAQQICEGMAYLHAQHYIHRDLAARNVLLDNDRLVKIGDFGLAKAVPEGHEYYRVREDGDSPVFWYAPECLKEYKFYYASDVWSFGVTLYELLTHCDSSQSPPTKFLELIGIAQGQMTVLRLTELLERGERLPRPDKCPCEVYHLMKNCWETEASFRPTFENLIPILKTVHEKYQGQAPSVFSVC
Sequence of JAK1 (P23458 whole entry): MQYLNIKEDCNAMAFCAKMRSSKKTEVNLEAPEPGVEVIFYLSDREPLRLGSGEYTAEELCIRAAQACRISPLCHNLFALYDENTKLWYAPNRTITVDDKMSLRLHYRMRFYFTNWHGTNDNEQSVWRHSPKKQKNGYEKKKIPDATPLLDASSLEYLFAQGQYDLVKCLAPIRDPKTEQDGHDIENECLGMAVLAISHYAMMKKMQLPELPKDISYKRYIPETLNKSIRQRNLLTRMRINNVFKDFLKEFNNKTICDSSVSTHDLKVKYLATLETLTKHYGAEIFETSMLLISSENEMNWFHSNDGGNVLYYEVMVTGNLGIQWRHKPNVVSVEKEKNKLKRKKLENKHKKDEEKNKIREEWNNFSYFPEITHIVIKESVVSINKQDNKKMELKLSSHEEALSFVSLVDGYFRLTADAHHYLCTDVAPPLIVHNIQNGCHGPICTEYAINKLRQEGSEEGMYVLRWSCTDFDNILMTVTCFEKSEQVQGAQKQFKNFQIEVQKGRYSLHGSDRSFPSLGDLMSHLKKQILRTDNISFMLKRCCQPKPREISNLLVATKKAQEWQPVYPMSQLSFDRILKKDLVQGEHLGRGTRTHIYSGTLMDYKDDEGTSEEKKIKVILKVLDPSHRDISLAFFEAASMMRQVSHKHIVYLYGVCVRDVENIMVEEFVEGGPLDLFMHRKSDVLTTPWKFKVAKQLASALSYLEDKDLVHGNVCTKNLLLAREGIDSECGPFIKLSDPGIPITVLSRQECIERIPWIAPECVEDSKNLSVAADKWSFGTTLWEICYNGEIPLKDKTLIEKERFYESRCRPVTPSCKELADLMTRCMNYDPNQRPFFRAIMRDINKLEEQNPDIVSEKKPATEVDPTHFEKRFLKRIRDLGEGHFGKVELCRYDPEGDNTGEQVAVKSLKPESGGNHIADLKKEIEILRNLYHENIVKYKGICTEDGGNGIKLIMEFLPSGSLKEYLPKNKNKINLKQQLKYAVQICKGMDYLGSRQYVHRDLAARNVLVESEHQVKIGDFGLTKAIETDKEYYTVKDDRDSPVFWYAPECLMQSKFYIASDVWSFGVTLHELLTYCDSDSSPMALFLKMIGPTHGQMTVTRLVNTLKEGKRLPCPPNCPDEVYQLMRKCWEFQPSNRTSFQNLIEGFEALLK

In turn, `CCS(=O)(=O)N1CC(CC#N)(n2cc(-c3ncnc4[nH]ccc34)cn2)C1` [BARI, baricitinib, reference compound] had an IC50 against TYK2 (IC50 TYK2, ATP at 1 mM) of 42.3 nM. This compound had a concentration for half-maximal inhibition (IC50) on TYK2 (IC50 TYK2, ATP at app. Km) of 2.21 nM. Moreover, in series [1] (in vivo), the terminal plasma half-life was ~ 8.5 h and the “metabolism (extent)” value is given as “very little metabolism”. In the series on GvHD (setting [5]), the “clinical GvHD scores” value is “less clinical GvHD scores” and the overall survival entry is recorded as “significantly improved survival rate”. In the series with GvHD (setting [6]), the “clinical GvHD scores” value is recorded as “less clinical GvHD scores” and the overall survival result is reported as “significantly improved survival rate”. In addition, in series [2], the plasma protein binding is reported as 50%.
In the case of `N#CC[C@H](C1CCCC1)n1cc(-c2ncnc3[nH]ccc23)cn1` [RUX, Ruxolitinib], the “metabolism (extent)” value in [1] (RUX mostly in the liver via CYP(3A4)) is greater than 99%. Besides, the terminal plasma half-life in series [1] (in vivo) is ~ 2 h. For the same compound, the “inhibition of off target PKN1” value with PKN1 is on record as “not by RUX”. Further, the plasma protein binding in series [2] is 97%.
As for `CCS(=O)(=O)N1CC2(C1)CC(CC#N)(n1cc(-c3ncnc4[nH]ccc34)cn1)C2` [WU1], the half-inhibitory concentration (IC50) against JAK3 (IC50 JAK3, ATP at app. Km) is 60.8 nM; at JAK2 (IC50 JAK2, ATP at app. Km), 8.22 nM; against TYK2 (IC50 TYK2, ATP at app. Km), 29.4 nM.
For `CCS(=O)(=O)N1CCC12CC(CC#N)(n1cc(-c3ncnc4[nH]ccc34)cn1)C2` (stereo not drawn) [WU2] the same measures were 418 nM, 54.2 nM and 574 nM.
As for `CCS(=O)(=O)N1CC2(CCC2(CC#N)n2cc(-c3ncnc4[nH]ccc34)cn2)C1` (stereo not drawn) [WU3], the IC50 on JAK3 (IC50 JAK3, ATP at app. Km) came to 36.2 nM; at JAK2 (IC50 JAK2, ATP at app. Km) it was 35.1 nM; against TYK2 (IC50 TYK2, ATP at app. Km) it was 578 nM.
For `CC(C)(C)NS(=O)(=O)NC1CC2(C1)CC(CC#N)(n1cc(-c3ncnc4[nH]ccc34)cn1)C2` (stereo not drawn) [WU5], the 50% inhibitory concentration (IC50) against JAK3 (IC50 JAK3, ATP at 1 mM) turned out to be 623 nM; at JAK3 (IC50 JAK3, ATP at app. Km) it was 11.2 nM; on JAK1 (IC50 JAK1, ATP at 1 mM) it was 8.2 nM; against JAK1 (IC50 JAK1, ATP at app. Km), 1.47 nM; on JAK2 (IC50 JAK2, ATP at 1 mM), 9.88 nM; against JAK2 (IC50 JAK2, ATP at app. Km) it was 0.45 nM. Besides, the half-maximal inhibitory concentration (IC50) on TYK2 (IC50 TYK2, ATP at 1 mM) came out at 58.9 nM; on TYK2 (IC50 TYK2, ATP at app. Km) it was 3.11 nM. Further, the “% of donor BM-derived B and T cells in the peripheral blood” value with GvHD (dose not given, day 27 after allo-HCT, vs vehicle control) was “increased the % of donor BM-derived B and T cells”. For the same compound, the “clinical GvHD scores” value in the series with GvHD (setting [7]) is on record as “less clinical GvHD scores”. In the series on GvHD (setting [7]), the overall survival entry is recorded as “significantly improved overall survival”.
With `CCS(=O)(=O)N1CCC2(CC1)CCC(CC#N)(n1cc(-c3ncnc4[nH]ccc34)cn1)CC2` [WU7], the half-inhibitory concentration (IC50) against JAK3 (IC50 JAK3, ATP at 1 mM) came out at 423 nM; against JAK3 (IC50 JAK3, ATP at app. Km) it was 12.3 nM; against JAK2 (IC50 JAK2, ATP at 1 mM), 13.8 nM; on JAK2 (IC50 JAK2, ATP at app. Km), 0.867 nM; at TYK2 (IC50 TYK2, ATP at 1 mM), 275 nM; against TYK2 (IC50 TYK2, ATP at app. Km) it was 12.1 nM. Also, the “plasma drug concentration (mouse PK)” value in series [3] is on record as “significant reduction in plasma concentration at 2 h after injection”. The “in vitro metabolic stability in HLM” value in series [4] is “diminished HLM metabolic stability”.
For the compound `N#CCC1(n2cc(-c3ncnc4[nH]ccc34)cn2)CS(=O)(=O)C1` [WU9], the IC50 against JAK3 (IC50 JAK3, ATP at 1 mM) amounted to 501 nM; on JAK3 (IC50 JAK3, ATP at app. Km), 10.4 nM; against JAK2 (IC50 JAK2, ATP at 1 mM), 9.67 nM; at JAK2 (IC50 JAK2, ATP at app. Km), 0.406 nM; at TYK2 (IC50 TYK2, ATP at 1 mM), 34.7 nM; against TYK2 (IC50 TYK2, ATP at app. Km) it was 2.24 nM.
In the case of `CS(=O)(=O)C1CC(CC#N)(n2cc(-c3ncnc4[nH]ccc34)cn2)C1` (stereo not drawn) [WU10], the 50% inhibitory concentration (IC50) at JAK3 (IC50 JAK3, ATP at 1 mM) amounted to 496 nM; at JAK3 (IC50 JAK3, ATP at app. Km), 13 nM; against JAK2 (IC50 JAK2, ATP at 1 mM) it was 6.11 nM; against JAK2 (IC50 JAK2, ATP at app. Km), 0.37 nM; at TYK2 (IC50 TYK2, ATP at 1 mM), 108 nM; against TYK2 (IC50 TYK2, ATP at app. Km), 4.56 nM. Also, the “% of Tregs in the spleens” value in the series with GvHD (dose not given, day 6 after allo-HCT, vs vehicle control) was “significantly increased the % of Tregs”. The “clinical GvHD scores” value in the series with GvHD (setting [7]) is reported as “reduced GvHD”. Further, the overall survival result in the series on GvHD (setting [7]) is “trend towards increased overall survival”. For the same compound, the “blood cell recovery (lymphocytes and white blood cells)” value in the series on GvHD (dose not given, whole blood, day 27 after allo-HCT) was “trend towards improvement in blood cell recovery”.
